Data on 24 molecules can be found in US20250026721A1, “COMPOUNDS AND METHODS FOR MODULATING RAS-PI3K” (Vividion Therapeutics, Inc., priority 2023, published 2025).

Molecules are shown by their SMILES.

T1 sequence (P42336 whole entry): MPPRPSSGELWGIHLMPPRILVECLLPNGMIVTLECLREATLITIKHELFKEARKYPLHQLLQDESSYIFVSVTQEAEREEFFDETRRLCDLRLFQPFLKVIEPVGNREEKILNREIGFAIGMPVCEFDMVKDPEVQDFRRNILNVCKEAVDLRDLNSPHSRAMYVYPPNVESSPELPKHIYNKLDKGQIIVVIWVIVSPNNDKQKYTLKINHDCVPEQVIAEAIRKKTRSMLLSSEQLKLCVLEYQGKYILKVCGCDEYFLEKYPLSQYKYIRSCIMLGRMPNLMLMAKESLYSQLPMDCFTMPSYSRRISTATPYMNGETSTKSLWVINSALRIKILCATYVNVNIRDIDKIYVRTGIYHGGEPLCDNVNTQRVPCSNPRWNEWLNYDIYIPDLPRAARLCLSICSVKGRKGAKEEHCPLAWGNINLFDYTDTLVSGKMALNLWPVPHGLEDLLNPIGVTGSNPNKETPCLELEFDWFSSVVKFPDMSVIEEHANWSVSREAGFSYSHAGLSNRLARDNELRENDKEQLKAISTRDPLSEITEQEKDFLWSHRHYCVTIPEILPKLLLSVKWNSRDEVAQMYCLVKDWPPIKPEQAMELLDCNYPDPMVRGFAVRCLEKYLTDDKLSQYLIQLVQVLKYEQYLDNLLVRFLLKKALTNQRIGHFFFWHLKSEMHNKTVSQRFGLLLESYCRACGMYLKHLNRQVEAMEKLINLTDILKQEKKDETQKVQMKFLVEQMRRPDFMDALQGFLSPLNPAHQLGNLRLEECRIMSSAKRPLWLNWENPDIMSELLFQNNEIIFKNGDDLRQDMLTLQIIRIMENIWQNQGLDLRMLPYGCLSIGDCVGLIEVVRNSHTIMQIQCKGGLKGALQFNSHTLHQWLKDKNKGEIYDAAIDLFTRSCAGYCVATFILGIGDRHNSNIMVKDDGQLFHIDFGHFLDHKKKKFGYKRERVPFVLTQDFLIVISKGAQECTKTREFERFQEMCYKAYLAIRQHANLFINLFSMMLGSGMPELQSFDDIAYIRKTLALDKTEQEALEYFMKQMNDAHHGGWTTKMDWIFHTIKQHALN
T1 sequence (P27986 whole entry partner): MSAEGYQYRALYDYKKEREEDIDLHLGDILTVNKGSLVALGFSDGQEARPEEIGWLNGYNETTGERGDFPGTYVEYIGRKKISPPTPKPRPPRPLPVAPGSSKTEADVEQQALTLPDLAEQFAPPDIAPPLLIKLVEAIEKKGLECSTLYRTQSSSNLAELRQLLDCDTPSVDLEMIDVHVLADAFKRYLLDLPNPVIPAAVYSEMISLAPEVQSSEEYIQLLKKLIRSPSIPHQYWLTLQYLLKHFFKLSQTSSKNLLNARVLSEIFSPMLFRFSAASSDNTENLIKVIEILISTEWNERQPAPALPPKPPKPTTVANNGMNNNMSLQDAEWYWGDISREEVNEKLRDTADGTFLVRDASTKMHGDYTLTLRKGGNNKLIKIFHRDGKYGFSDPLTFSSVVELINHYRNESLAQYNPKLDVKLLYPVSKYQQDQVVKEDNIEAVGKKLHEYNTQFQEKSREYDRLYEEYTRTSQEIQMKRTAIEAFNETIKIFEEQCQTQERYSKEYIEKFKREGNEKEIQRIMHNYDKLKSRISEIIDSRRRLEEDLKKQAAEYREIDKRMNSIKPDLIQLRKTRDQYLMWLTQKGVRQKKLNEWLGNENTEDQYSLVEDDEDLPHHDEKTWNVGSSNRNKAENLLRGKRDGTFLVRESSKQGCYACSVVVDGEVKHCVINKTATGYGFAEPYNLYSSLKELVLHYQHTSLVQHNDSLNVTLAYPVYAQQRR

This assay concerns the target T1, PIK3CA_C242 (Homo sapiens, UniProt P42336).
T1 construct: endogenous in cells; host or cells: Jurkat cell lysate
Put plainly: Proteomic TE50 (IA-DTB / TMT mass spectrometry) in Jurkat cell lysate. It is filed as binding. The note with it: 1 hour at rt, 7-point dose response. As for the experimental part:
Example 4. Proteomic TE50 In vitro TE50 values for PIK3CA_C242 were obtained by treating 500 μg of cell lysate generated from Jurkat cells with DMSO or compound for 1 hour at rt followed by the addition of 200 μM desthiobiotin polyethyleneoxide iodoacetamide (IA-DTB) in DMSO for one hour at rt. Compounds were serially diluted 1:5 for a total of 7 points in order to generate dose response curves. Samples were then precipitated by the addition of 8× ice cold acetone and incubated at -80° C. for two hours. Protein was then pelleted by centrifugation (4,200 RPM, 45 min, 4° C.). The pelleted material was resuspended in 9M urea, 50 mM ammonium bicarbonate and proteins were reduced and alkylated by the addition of DTT and iodoacetamide (10 and 30 mM, respectively). Following reduction and alkylation, samples were exchanged into 2M urea (Zeba spin desalting plates, Thermo Fisher) and digested with Trypsin. IA-DTB labeled peptides were isolated with streptavidin agarose resin. Enriched peptides were eluted by the addition of 50% acetonitrile (ACN) 0.1% formic acid (FA) and dried in a SpeedVac vacuum concentrator. […] Reactions were quenched by the addition of 6.5 μL of 5% hydroxylamine. Samples were then combined and desalted on a Evolute express ABN plate (Biotage, 600-0010-PX01). Targeted TMT measurements were collected using an Orbitrap Lumos Tribrid Mass Spectrometer (Thermo Scientific) coupled to an UltiMate 3000 Series Rapid Separation LC system and autosampler (Thermo Scientific Dionex). Peptides were eluted onto a custom C18 capillary analytical column (75-μm inner diameter fused silica, packed with Acclaim PepMap C18 resin; Thermo Scientific) using an Acclaim PepMap 100 (Thermo 164535) loading column, and separated at a flow rate of […]. Data were acquired using a specific MS3-based TMT method targeting the peptide containing […], +2 charge state) where MS2 peptide fragmentation is triggered upon detection of the peptide precursor ion. Subsequent MS3 analysis was then performed using pre-selected peptide fragment ions that were isolated for fragmentation using synchronous precursor selection. RAW files were converted to MZXML format and searched with the SEQUEST algorithm using the […] software package. TMT quantitation was performed with a filter requiring at least ten summed signal-to-noise (S/N) for control channels. TE50 values were calculated from 7-point dose response curves created using the reporter ion S/N for each channel.
In the case of `COc1cccc(-c2cc(Cl)ncc2S(=O)(=O)N2CCC(F)(C(=O)N[C@@H](C)/C=C\S(C)(=O)=O)CC2)c1` [Compound 270, (S,Z)-1-((6-chloro-4-(3-methoxyphenyl)pyridin-3-yl)sulfonyl)-4-fluoro-N-(4-(methylsulfonyl)but-3-en-2-yl)piperidine-4-carboxamide], the IC50 was found to be 550 nM.

In the case of `COc1ccc(S(=O)(=O)N2CCC(F)(C(=O)NC/C=C/S(C)(=O)=O)CC2)c(-c2cccc(Cl)c2)c1` [Compound 41, (E)-1-((3′-chloro-5-methoxy-[1,1′-biphenyl]-2-yl)sulfonyl)-4-fluoro-N-(3-(methylsulfonyl)allyl)piperidine-4-carboxamide], the half-inhibitory concentration (IC50) was found to be 290 nM. Then `COc1ccc(S(=O)(=O)N2CCC(F)(C(=O)N[C@@H](C)/C=C\S(C)(=O)=O)CC2)c(-c2ccccc2C)c1` [Compound 12, (S,Z)-4-fluoro-1-((5-methoxy-2′-methyl-[1,1′-biphenyl]-2-yl)sulfonyl)-N-(4-(methylsulfonyl)but-3-en-2-yl)piperidine-4-carboxamide], with 66 nM; and `CS(=O)(=O)/C=C/CNC(=O)C1(F)CCN(S(=O)(=O)c2ccc(Cl)cc2-c2cccc(Cl)c2)CC1` [Compound 45, (E)-1-((3′,5-dichloro-[1,1′-biphenyl]-2-yl)sulfonyl)-4-fluoro-N-(3-(methylsulfonyl)allyl)piperidine-4-carboxamide], with 420 nM; and `COc1cc(-c2ccccc2C)c(S(=O)(=O)N2CCC(F)(C(=O)NC/C=C/S(C)(=O)=O)CC2)cn1` [Compound 189, (E)-4-fluoro-1-((6-methoxy-4-(o-tolyl)pyridin-3-yl)sulfonyl)-N-(3-(methylsulfonyl)allyl)piperidine-4-carboxamide], with 263 nM. In the case of `COc1ccc(S(=O)(=O)N2CCC(F)(C(=O)N3CC(/C=C\S(C)(=O)=O)C3)CC2)c(-c2ccccc2Cl)c1` [Compound 230, (Z)-(1-((2′-chloro-5-methoxy-[1,1′-biphenyl]-2-yl)sulfonyl)-4-fluoropiperidin-4-yl)(3-(2-(methylsulfonyl)vinyl)azetidin-1-yl)methanone], the IC50 stood at 140 nM. With `Cc1ccccc1-c1cc(N2CCCC2)ccc1S(=O)(=O)N1CCC(F)(C(=O)N[C@H](C)/C=C\S(C)(=O)=O)CC1` [Compound 120, (R,Z)-4-fluoro-1-((2′-methyl-5-(pyrrolidin-1-yl)-[1,1′-biphenyl]-2-yl)sulfonyl)-N-(4-(methylsulfonyl)but-3-en-2-yl)piperidine-4-carboxamide] the figure was 250 nM.

`N#C/C=C/CNC(=O)C1(F)CCN(S(=O)(=O)c2cnc(Br)cc2-c2ccccc2Cl)CC1` [Compound 278, (E)-1-((6-bromo-4-(2-chlorophenyl)pyridin-3-yl)sulfonyl)-N-(3-cyanoallyl)-4-fluoropiperidine-4-carboxamide]: the IC50 turned out to be 240 nM. Then `COc1cccc(-c2cc(Br)ccc2S(=O)(=O)N2CCC(F)(C(=O)NC/C=C/S(C)(=O)=O)CC2)c1` [Compound 63, (E)-1-((5-bromo-3′-methoxy-[1,1′-biphenyl]-2-yl)sulfonyl)-4-fluoro-N-(3-(methylsulfonyl)allyl)piperidine-4-carboxamide], with 360 nM; and `N#C/C=C/CNC(=O)C1(F)CCN(S(=O)(=O)c2ccc(Cl)cc2-c2ccccc2Cl)CC1` [Compound 69, (E)-N-(3-cyanoallyl)-1-((2′,5-dichloro-[1,1′-biphenyl]-2-yl)sulfonyl)-4-fluoropiperidine-4-carboxamide], with 520 nM. Molecule `COc1ccc(S(=O)(=O)N2CCC(F)(C(=O)NC/C=C\C#N)CC2)c(-c2ccccc2Cl)c1` [Compound 71, (Z)-1-((2′-chloro-5-methoxy-[1,1′-biphenyl]-2-yl)sulfonyl)-N-(3-cyanoallyl)-4-fluoropiperidine-4-carboxamide] registered an IC50 of 160 nM. With `C[C@H](/C=C\S(C)(=O)=O)NC(=O)C1(F)CCN(S(=O)(=O)c2ccc(OC3CC3)cc2-c2ccccc2Cl)CC1` [Compound 101, (R,Z)-1-((2′-chloro-5-cyclopropoxy-[1,1′-biphenyl]-2-yl)sulfonyl)-4-fluoro-N-(4-(methylsulfonyl)but-3-en-2-yl)piperidine-4-carboxamide] the figure was 860 nM. Then `CC[C@H](/C=C\S(C)(=O)=O)NC(=O)C1(F)CCN(S(=O)(=O)c2ccc(N(C)C)cc2-c2ccccc2Cl)CC1` [Compound 85, (R,Z)-1-((2′-chloro-5-(dimethylamino)-[1,1′-biphenyl]-2-yl)sulfonyl)-4-fluoro-N-(1-(methylsulfonyl)pent-1-en-3-yl)piperidine-4-carboxamide], with 930 nM; and `COc1ccc(S(=O)(=O)N2CCC(F)(C(=O)NC/C=C/S(C)(=O)=O)CC2)c(-c2ccccc2)c1` [Compound 38, (E)-4-fluoro-1-((5-methoxy-[1,1′-biphenyl]-2-yl)sulfonyl)-N-(3-(methylsulfonyl)allyl)piperidine-4-carboxamide], with 644 nM. As for `COc1cc(-c2ccccc2Cl)c(S(=O)(=O)N2CCC(F)(C(=O)NC/C=C/S(C)(=O)=O)CC2)cn1` [Compound 188, (E)-1-((4-(2-chlorophenyl)-6-methoxypyridin-3-yl)sulfonyl)-4-fluoro-N-(3-(methylsulfonyl)allyl)piperidine-4-carboxamide], the IC50 is 189 nM. With `CC(C)Oc1ccc(S(=O)(=O)N2CCC(F)(C(=O)N[C@H](C)/C=C\S(C)(=O)=O)CC2)c(-c2ccccc2Cl)c1` [Compound 105, (R,Z)-1-((2′-chloro-5-isopropoxy-[1,1′-biphenyl]-2-yl)sulfonyl)-4-fluoro-N-(4-(methylsulfonyl)but-3-en-2-yl)piperidine-4-carboxamide] the figure was 780 nM; with `COc1cccc(-c2ccccc2S(=O)(=O)N2CCC(F)(C(=O)NC/C=C/S(=O)(=O)C3CCN(C)CC3)CC2)c1` [Compound 228, (E)-4-fluoro-1-((3′-methoxy-[1,1′-biphenyl]-2-yl)sulfonyl)-N-(3-((1-methylpiperidin-4-yl)sulfonyl)allyl)piperidine-4-carboxamide], 690 nM. `COc1cccc(-c2cc(Br)ccc2S(=O)(=O)N2CCC(F)(C(=O)N[C@@H](C)/C=C\S(C)(=O)=O)CC2)c1` [Compound 61, (S,Z)-1-((5-bromo-3′-methoxy-[1,1′-biphenyl]-2-yl)sulfonyl)-4-fluoro-N-(4-(methylsulfonyl)but-3-en-2-yl)piperidine-4-carboxamide] displayed an IC50 of 66.7 nM.

As for `CC#Cc1ccc(S(=O)(=O)N2CCC(F)(C(=O)N[C@H](C)/C=C\S(C)(=O)=O)CC2)c(-c2ccccc2Cl)c1` [Compound 131, (R,Z)-1-((2′-chloro-5-(prop-1-yn-1-yl)-[1,1′-biphenyl]-2-yl)sulfonyl)-4-fluoro-N-(4-(methylsulfonyl)but-3-en-2-yl)piperidine-4-carboxamide], the IC50 amounted to 209 nM. With `CN(C)c1ccc(S(=O)(=O)N2CCC(F)(C(=O)NC/C=C/S(C)(=O)=O)CC2)c(-c2ccccc2)c1` [Compound 94, (E)-1-((5-(dimethylamino)-[1,1′-biphenyl]-2-yl)sulfonyl)-4-fluoro-N-(3-(methylsulfonyl)allyl)piperidine-4-carboxamide] the figure was 190 nM.

Molecule `C[C@H](/C=C\S(C)(=O)=O)NC(=O)C1(F)CCN(S(=O)(=O)c2ccc(C3CCC3)cc2-c2ccccc2Cl)CC1` [Compound 98, (R,Z)-1-((2′-chloro-5-cyclobutyl-[1,1′-biphenyl]-2-yl)sulfonyl)-4-fluoro-N-(4-(methylsulfonyl)but-3-en-2-yl)piperidine-4-carboxamide] returned an IC50 of 520 nM. Molecule `C[C@H](/C=C\S(C)(=O)=O)NC(=O)C1(F)CCN(C(=O)[C@@H]2CN(C(=O)OC(C)(C)C)C[C@@H]2c2ccccc2Cl)CC1` (racemic) [Compound 158, tert-butyl(3RS,4RS)-3-(2-chlorophenyl)-4-(4-fluoro-4-(((R,Z)-4-(methylsulfonyl)but-3-en-2-yl)carbamoyl)piperidine-1-carbonyl)pyrrolidine-1-carboxylate] registered a half-inhibitory concentration (IC50) of 895 nM. In turn, `CS(=O)(=O)/C=C/CNC(=O)C1(F)CCN(S(=O)(=O)c2ccc(Cl)cc2-c2ccccc2)CC1` [Compound 37, (E)-1-((5-chloro-[1,1′-biphenyl]-2-yl)sulfonyl)-4-fluoro-N-(3-(methylsulfonyl)allyl)piperidine-4-carboxamide] had an IC50 of 297 nM. With `CS(=O)(=O)/C=C/CNC(=O)C1(F)CCN(S(=O)(=O)c2ccc(Cl)cc2-c2ccccc2Cl)CC1` [Compound 40, (E)-1-((2′,5-dichloro-[1,1′-biphenyl]-2-yl)sulfonyl)-4-fluoro-N-(3-(methylsulfonyl)allyl)piperidine-4-carboxamide] the figure was 210 nM.

As a reminder, the IC50 is the concentration that inhibits the measured activity by half. Higher therefore signals weaker potency.
